Laboratory results reported in patent US11053204B2, “Pyrimidinyloxy benzene derivatives as herbicides” (FMC Corporation, priority 2015, dated 2021).

Columns and labels:
Assay type in all cases: in vivo
[1] = tested on: Italian ryegrass (Lolium multiflorum); assay: Test A preemergence, visual injury rating; conditions: Lolium multiflorum, pre-emergence, 240 h, 0 to 100 scale (0 no effect, 100 complete control), read-out: Ryegrass, Italian plant response rating
Procedure, shortened: (§1)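 Greenhouse pot test, loam/sand soil. Formulation: non-phytotoxic solvent mix plus surfactant. Pre: directed spray onto soil after sowing. Post: plants at 1–2 leaf, 2–10 cm. Rated visually vs untreated controls at ~10 d, 0 (no effect) to 100 (complete control).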

[2] = tested on: barnyardgrass (Echinochloa crus-galli); assay: Test A preemergence, visual injury rating; conditions: Echinochloa crus-galli, pre-emergence, 240 h, 0 to 100 scale (0 no effect, 100 complete control), read-out: Barnyardgrass plant response rating
Procedure, shortened: as §1

[3] = tested on: giant foxtail (Setaria faberii); assay: Test A preemergence, visual injury rating; conditions: Setaria faberi, pre-emergence, 240 h, 0 to 100 scale (0 no effect, 100 complete control), read-out: Foxtail, Giant plant response rating
Procedure, shortened: as §1

[4] = tested on: kochia (Kochia scoparia); assay: Test A preemergence, visual injury rating; conditions: Bassia scoparia, pre-emergence, 240 h, 0 to 100 scale (0 no effect, 100 complete control), read-out: Kochia plant response rating
Procedure, shortened: as §1

[5] = tested on: pigweed (Amaranthus retroflexus); assay: Test A preemergence, visual injury rating; conditions: Amaranthus retroflexus, pre-emergence, 240 h, 0 to 100 scale (0 no effect, 100 complete control), read-out: Pigweed plant response rating
Procedure, shortened: as §1

[6] = tested on: ragweed (common ragweed, Ambrosia elatior); assay: Test A preemergence, visual injury rating; conditions: Ambrosia artemisiifolia, pre-emergence, 240 h, 0 to 100 scale (0 no effect, 100 complete control), read-out: Ragweed plant response rating
Procedure, shortened: as §1

[7] = tested on: barnyardgrass (Echinochloa crus-galli); assay: Test C postemergence, plant response rating; conditions: Echinochloa crus-galli, post-emergence
Procedure, shortened: (§2)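 Visual injury score, 0 = no effect, 100 = complete control, assigned against untreated controls after 13 to 15 d in the greenhouse. Compounds were applied in a surfactant-containing non-phytotoxic solvent mix, preemergence to seeded loam/sand or silt loam soil, or postemergence to 1- to 4-leaf plants (2 to 18 cm).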

[8] = tested on: corn (Zea mays); assay: Test C postemergence, plant response rating; conditions: Zea mays, post-emergence
Procedure, shortened: as §2

[9] = tested on: crabgrass, large (large crabgrass, Digitaria sanguinalis); assay: Test C postemergence, plant response rating; conditions: Digitaria sanguinalis, post-emergence
Procedure, shortened: as §2

[10] = tested on: kochia (Kochia scoparia); assay: Test C postemergence, plant response rating; conditions: Bassia scoparia, post-emergence
Procedure, shortened: as §2

[11] = tested on: lambsquarters (Chenopodium album); assay: Test C postemergence, plant response rating; conditions: Chenopodium album, post-emergence
Procedure, shortened: as §2

[12] = tested on: morningglory (Ipomoea coccinea); assay: Test C postemergence, plant response rating; conditions: Ipomoea, post-emergence
Procedure, shortened: as §2

[13] = tested on: nutsedge, yellow (yellow nutsedge, Cyperus esculentus); assay: Test C postemergence, plant response rating; conditions: Cyperus, post-emergence
Procedure, shortened: as §2

[14] = tested on: oat, wild (wild oat Avena fatua); assay: Test C postemergence, plant response rating; conditions: Avena fatua, post-emergence
Procedure, shortened: as §2

[15] = tested on: ragweed (common ragweed, Ambrosia elatior); assay: Test C postemergence, plant response rating; conditions: Ambrosia artemisiifolia, post-emergence
Procedure, shortened: as §2

[16] = tested on: velvetleaf (Abutilon theophrasti); assay: Test C postemergence, plant response rating; conditions: Abutilon theophrasti, post-emergence
Procedure, shortened: as §2

[17] = 62 g ai/ha, scale 0 to 100 (0 no effect, 100 complete control)
[18] = 125 g ai/ha, scale 0 to 100 (0 no effect, 100 complete control)

`CC(CC(F)(F)F)OC(=O)c1c(Br)cccc1Oc1ncc(Cl)cn1` (stereo not shown) [Compound 16, 3,3,3-trifluoro-1-methylpropyl 2-bromo-6-[(5-chloro-2-pyrimidinyl)oxy]benzoate] showed a pest or weed control at 125 g/ha ([1]; 125 g ai/ha) of 0%, a pest or weed control at 500 g/ha ([1]; 500 g ai/ha) of 20% and a pest or weed control at 125 g/ha ([2]; 125 g ai/ha) of 30%. The pest or weed control at 500 g/ha ([2]; 500 g ai/ha) was 100%, the pest or weed control at 125 g/ha ([3]; 125 g ai/ha) was 90% and the pest or weed control at 500 g/ha ([3]; 500 g ai/ha) was 100%. The pest or weed control at 125 g/ha ([4]; 125 g ai/ha) was 90%, the pest or weed control at 500 g/ha ([4]; 500 g ai/ha) was 80% and the pest or weed control at 125 g/ha ([5]; 125 g ai/ha) was 90%. It also gave a pest or weed control at 500 g/ha ([5]; 500 g ai/ha) of 100%, a pest or weed control at 125 g/ha ([6]; 125 g ai/ha) of 0% and a pest or weed control at 500 g/ha ([6]; 500 g ai/ha) of 0%. It also gave a pest or weed control at 16 g/ha ([7]; 16 g ai/ha, scale 0 to 100) of 5%, a pest or weed control at 31 g/ha ([7]; 31 g ai/ha, scale 0 to 100) of 10% and a pest or weed control at 62 g/ha [7, 17] of 20%. It also gave a pest or weed control at 125 g/ha [7, 18] of 20%, a Corn plant response rating (crop injury, 0 = no effect, 100 = complete kill) at 16 g/ha ([8]; 16 g ai/ha, scale 0 to 100) of 5% and a Corn plant response rating (crop injury, 0 = no effect, 100 = complete kill) at 31 g/ha ([8]; 31 g ai/ha, scale 0 to 100) of 15%. It also gave a plant injury at 62 g/ha [8, 17] of 15%, a plant injury at 125 g/ha [8, 18] of 20% and a pest or weed control at 16 g/ha ([9]; 16 g ai/ha, scale 0 to 100) of 10%. It also gave a pest or weed control at 31 g/ha ([9]; 31 g ai/ha, scale 0 to 100) of 15%, a pest or weed control at 62 g/ha [9, 17] of 25% and a pest or weed control at 125 g/ha [9, 18] of 25%. It also gave a pest or weed control at 16 g/ha ([10]; 16 g ai/ha, scale 0 to 100) of 40%, a pest or weed control at 31 g/ha ([10]; 31 g ai/ha, scale 0 to 100) of 50% and a pest or weed control at 62 g/ha [10, 17] of 80%. For the same molecule, the pest or weed control at 125 g/ha [10, 18] was 90%, the pest or weed control at 16 g/ha ([11]; 16 g ai/ha, scale 0 to 100) was 40% and the pest or weed control at 31 g/ha ([11]; 31 g ai/ha, scale 0 to 100) was 50%. The pest or weed control at 62 g/ha [11, 17] was 40%, the pest or weed control at 125 g/ha [11, 18] was 60% and the pest or weed control at 16 g/ha ([12]; 16 g ai/ha, scale 0 to 100) was 5%. For the same molecule, the pest or weed control at 31 g/ha ([12]; 31 g ai/ha, scale 0 to 100) was 30%, the pest or weed control at 62 g/ha [12, 17] was 40% and the pest or weed control at 125 g/ha [12, 18] was 75%. For the same molecule, the pest or weed control at 16 g/ha ([13]; 16 g ai/ha, scale 0 to 100) was 0%, the pest or weed control at 31 g/ha ([13]; 31 g ai/ha, scale 0 to 100) was 5% and the pest or weed control at 62 g/ha [13, 17] was 10%. The pest or weed control at 125 g/ha [13, 18] was 20%, the pest or weed control at 16 g/ha ([14]; 16 g ai/ha, scale 0 to 100) was 0% and the pest or weed control at 31 g/ha ([14]; 31 g ai/ha, scale 0 to 100) was 5%. For the same molecule, the pest or weed control at 62 g/ha [14, 17] was 5%, the pest or weed control at 125 g/ha [14, 18] was 10% and the pest or weed control at 16 g/ha ([15]; 16 g ai/ha, scale 0 to 100) was 20%. The pest or weed control at 31 g/ha ([15]; 31 g ai/ha, scale 0 to 100) was 10%, the pest or weed control at 62 g/ha [15, 17] was 10% and the pest or weed control at 125 g/ha [15, 18] was 40%. It also gave a pest or weed control at 16 g/ha ([16]; 16 g ai/ha, scale 0 to 100) of 20%, a pest or weed control at 31 g/ha ([16]; 31 g ai/ha, scale 0 to 100) of 25% and a pest or weed control at 62 g/ha ([16]; 62 g ai/ha, scale 0 to 100 (0 no effect, 100 complete control), read-out: Velvetleaf plant response rating) of 30%. For the same molecule, the pest or weed control at 125 g/ha [16, 18] was 50%.
